Source: article PMC8157322, “Gd(III)–Pt(IV) theranostic contrast agents for tandem MR imaging and chemotherapy” (Chemical Science, 2020)

How the values were obtained:
[1] = Relaxivity after incubation in 5 mM GSH in PBS; format: physicochemical; details: 1.41 T, PBS with 5 mM glutathione, 37 °C
Experimental: This is possibly due to an increase in the rotational correlation time (τR) or a change in the inner sphere hydration number (q) of Gd(III). The differences in relaxivity of GP1 and GP2 compared to 1 offers the possibility of monitoring reduction of the agents by MR at both high and low field strength. To test this, GP1, GP2, and 1 were incubated in 5 mM GSH in PBS and the relaxivity was measured (see ESI ^†). The relaxivity of each converged to the same value (r1 of 4.4, 4.5, and 4.6 mM^−1 s^−1 for 1, GP1, and GP2 respectively), indicating the same Gd(III) species was formed after reduction. The significant change in r1 upon reduction of GP1 and GP2 theoretically could be used to monitor intracellular reduction by MR. However, further testing needs to be done to determine if these agents are suitable for this application.
Fig. S2 Graph of r1 of (A) GP1 measured at 1.41 T (B) GP1 measured at 7 T (C) GP2 measured at 1.41 T
(D) GP2 measured at 7 T (E) 1 measured at 1.41 T (F) 1 measured at 7 T. All measurements were taken
in PBS at 37 °C (G) 1 measured at 1.41 T with 5 mM GSH (H) GP1 measured at 1.41 T with 5 mM GSH
and (I) GP2 measured at 1.41 T with 5 mM GSH.
Table S1. r1 of GP1, GP2, and 1 in PBS with 5 mM glutathione at 37 °C
GP1 (5 mM GSH) GP2 (5 mM GSH) 1 (5 mM GSH)

[2] = Aqueous solubility (qualitative); format: physicochemical; details: aqueous solutions / solvents
[3] = tested on: porcine liver esterase (PLE); assay: Stability in porcine liver esterase in PBS (HPLC-MS); format: in vitro ADME; details: PBS with 10 units/mL porcine liver esterase, 37 °C
Experimental: To ensure both agents remain stable in aqueous media under various conditions, they were dissolved in PBS, two types of cell culture media (MEM and RPMI-1640), pH 5 H2O, and porcine live esterase (PLE) in PBS and monitored over time by HPLC-MS. […]
Stability of GP1 and GP2 in various aqueous media. Aliquots of GP1 and GP2 were prepared from a stock with known mass checked by ICP-MS. An aliquot of each was dissolved in H2O and analyzed by HPLC-MS using an Atlantis C18 column (4.6 × 250 mm, 5 μm) and the following method: MeCN held at 0% for 3 min followed by a 15 min ramp to 100% MeCN (GP1 retention time: 10.9 min, GP2 retention time: 11.6 min). Aliquots of both were additionally dissolved in PBS, MEM, RPMI-1640, pH 5 H2O, PBS with 10 units/mL porcine liver esterase, 5 mM glutathione, and 5 mM sodium ascorbate, incubated in a shaker at 37 °C, and were analyzed by HPLC-MS at different time points using the same method. At each time point, the area of the peak of GP1 or GP2 was determined by integration and compared to the area of the peaks in […]

[4] = Reduction by 5 mM GSH / 5 mM ascorbate at 37 °C (HPLC-MS); format: physicochemical
Experimental: Under reducing conditions both agents rapidly converted to a monomeric Gd(III) complex and a Pt(II) drug. Each agent was incubated with 5 mM GSH and 5 mM ascorbate at 37 °C to mimic intracellular conditions. […] This is not surprising, as ascorbate is a weaker reducing agent. […]
solution. These capillaries were imaged using a Bruker PharmaScan 7 T MR imaging spectrometer (Bruker BioSpin, Billerica, MA, USA). T1 relaxation times were measured using a rapid-acquisition rapid-echo (RARE-VTR) T1-map pulse sequence with static TE (10 ms) and […]
Stability of GP1 and GP2 in various aqueous media. […] An aliquot of each was dissolved in H2O and analyzed by HPLC-MS using an Atlantis C18 column (4.6 × 250 mm, 5 μm) and the following method: MeCN held at 0% for 3 min followed by a 15 min ramp to 100% MeCN (GP1 retention time: 10.9 min, GP2 retention time: 11.6 min). Aliquots of both were additionally dissolved in PBS, MEM, RPMI-1640, pH 5 H2O, PBS with 10 units/mL porcine liver esterase, 5 mM glutathione, and 5 mM sodium ascorbate, incubated in a shaker at 37 °C, and were analyzed by HPLC-MS at different time points using the same method. At each time point, the area of the peak of GP1 or GP2 was determined by integration and compared to the area of the peaks in H2O. […]

## [NH2][Pt]([NH2])([OH])([Cl])([Cl])[O]C(=O)CCCCCN1CCN2CCN3CCN(CC1)CC(=O)[O][Gd]([O]C(=O)C2)[O]C(=O)C3 [GP1]
[1]
  r1 with 5 mM GSH: 4.5 mM⁻¹ s⁻¹
[2]
  Solubility: readily soluble in aqueous solutions
[3]
  Decrease in stability in presence of PLE: ~10%
[4]; 5 mM GSH, in less than an hour
  Reduction by GSH: ≥ 94%
[4]; 5 mM ascorbate, compared to GSH
  Reduction by ascorbate: reduced by ascorbate, albeit it at a much slower rate
